Tests used:
A549 cells = assay: Cell cycle distribution by flow cytometry in A549 cells; format: cell-based, human; conditions: A549, 2% FBS, 15 μM, after 24 h
Procedure: Referring now to FIG. 5A, SR13904 exerts inhibitory effects on the cell cycle. A representative experiment in which A549 cells were grown in phenol-red-free DMEM+2% charcoal-treated FBS □ SR13904 ([…]). Cells were treated in the exponential phase and assessed by flow cytometry at 24 and 48 h.
Referring now to FIG. 5B, SR13904 treatment arrests A549 cells in the G1 phase of the cell cycle. A549 cells were incubated in 2% FBS (to maintain a high proliferative state) and the cell-cycle profile was determined by flow cytometry after SR13904 treatment (15 μM) for 24 and 48 h, and compared with similar treatment by a control. […] All differences (SR13904-treated vs. vehicle control-treated) were significant; the G1 differences were highly significant (**p=0.001-0.01, ***p=<0.001). The results provide confirming evidence that activated PPARδ increases cell cycle progression through a positive effect on G1-phase cells, and that PPARδ activation upregulates CDK2, CDK4, and cyclin D1 expression patterns.

LBD of PPARδ protein = target: T1, LBD of PPARδ protein (Homo sapiens, UniProt Q03181); assay: PPARδ ligand-binding domain (LBD)/Gal4 UAS-tk-luciferase reporter assay in U2-OS cells; format: cell-based
T1 construct: co-transfection of a plasmid containing an LBD/Gal4 fusion construct; expressed in transfected cells; host or cells: U2-OS (human bone cancer line)
T1 sequence (Q03181 211-439 limits assumed): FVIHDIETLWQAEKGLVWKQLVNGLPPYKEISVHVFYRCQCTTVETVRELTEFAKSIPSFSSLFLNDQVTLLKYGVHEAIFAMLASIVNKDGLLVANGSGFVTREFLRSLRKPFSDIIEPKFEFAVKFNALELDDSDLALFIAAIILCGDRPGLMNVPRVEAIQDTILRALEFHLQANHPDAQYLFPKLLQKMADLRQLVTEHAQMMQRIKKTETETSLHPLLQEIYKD
Procedure: General Testing Procedures. Each ligand was screened for PPARδ binding and transactivation activity through the use of two complementary reporter assays as described below. In both systems, transfection efficiency was standardized by co-transfection of a control Renilla luciferase. U2-OS (human bone cancer line) cells were used for both assays because this is the cell line of choice for screening PPAR ligands. At 18 h post-transfection, GW 501, with and without the ligands of the disclosure, was added to the cells and incubated for an additional 24 h. The cells were then harvested and luciferase activities profiled.
A PPARδ protein ligand-binding domain (LBD) assay. The LBD assay consists of cellular co-transfection of a plasmid containing an LBD/Gal4 fusion construct and a vector containing a UAS-tk-luciferase reporter construct under the transcriptional control of a Gal4 upstream activating sequence. This system was used to test for binding activities of candidate PPARδ ligands to the LBD of PPARδ protein.
Referring to FIG. 3, U2-OS cells were transiently transfected with appropriate expression and reporter vectors. Ligands were added to the cell cultures 24 h post-transfection and incubated for an additional 16 h. Lipoprotein lipase (LPL; 2 μg/ml) was added with VLDL (5 μg/ml) to release PPARδ-active triglycerides. FIG. 3A: PPARδ LBD/Gal4/UAS-tk-luc competition assays with VLDL SR13904 (0-10 μM). The reporter activation (fold increase over blank) is presented relative to GW501516 at 7 nM (fold increase over blank=100). FIG. 3B: PPRE reporter assays using 0, 1, and 10 μM SR13904+VLDL. All assays were repeated in triplicate.

MMP-9 = assay: Gelatin zymogel analysis of MMP-9 activity in PC-3 cells; format: cell-based, human; conditions: PC-3, 16 h; VLDL 2 μg/ml + LPL 2 μg/ml and/or 10 μM SR13904
Procedure: Zymogel studies were performed to determine whether PPARδ could regulate MMP-9 expression/activity in prostate cancer cells. Over-expression of MMP-9 is directly linked to metastatic prostate cancer, at least in part through mitogen/extracellular-signal-regulated kinase kinase 5/extracellular signal-regulated kinase-5 (MEK5/ERK5). An increase in MMP-9 activity in VLDL-treated PC-3 cells was observed (see FIG. 7), and this activation was attenuated by co-incubation with SR 13904.
Referring to FIG. 7, PC-3 cultures were treated with ligands (2 μg/ml VLDL+2 μg/ml LPL and/or 10 μM SR13904) for 16 h prior to harvesting of cells (for cell counting) and collection and concentration of conditioned media. Loading was based on equal cell numbers, corresponding closely to equal loading volumes.

A549 = assay: Alamar Blue proliferation assay, A549; format: cell-based; conditions: Homo sapiens, 96 h; A549, 0-40 μM, 0.5% serum, 4 days; read-out: IC50 for growth inhibition
Procedure: (§1) The effect of SR13904 on the proliferation of these cell lines was determined by an Alamar Blue assay. Exponentially growing cells were treated with a range of SR13904 concentrations (0-40 μM; in 0.5% serum) over 4 days and proliferation curves were determined. The IC50 values for growth inhibition by SR13904 for each cell line were determined. […] In addition, colony formation assays with SR13904 were performed with both A549 and Huh7 cells.

PC-3 cells = assay: Alamar Blue proliferation assay, PC-3; format: cell-based; conditions: Homo sapiens, 96 h; PC-3, 0-40 μM, 0.5% serum, 4 days; read-out: IC50 for growth inhibition
Procedure: as §1

[1] = Proliferation assay of Table 2 (cell line not stated); format: cell-based; conditions: concentration that inhibits cell viability (or growth) by 50% relative to vehicle control; read-out: Prolif IC50
Procedure: The LANTHA SCREEN™ TR-FRET PPARδ Competitive Binding Assay was conducted for a variety of compounds according to the instructions provided by the manufacturer (Invitrogen). In addition, proliferation assays were conducted. In Table 2, “Prolif IC50” is the concentration that inhibits cell viability (or growth) by 50% relative to a vehicle control, and “TR-F binding IC50 (μM)” is the concentration that competes binding by a labeled pan-agonist to the ligand binding domain of PPAR delta, by 50%.

inhibition of binding of VLDL to PPARδ (LBD of PPARδ protein; SR13904 0-10 μM with VLDL): significantly inhibit | concentrations at which ligand binds LBD of PPARδ, attenuating LBD binding of GW501 (LBD of PPARδ protein; competition with GW501 (7 nM), U2-OS cells): 1 to 10 µM | PPARδ ligand profile (agonist/antagonist) (LBD of PPARδ protein; from GAL-4 binding and PPRE transactivation reporter screens): PPARδ antagonist | IC50 (A549): 8 to 10 µM | IC50 (PC-3 cells): > 30 µM
Compound: Cc1cc(SCc2sc(-c3cccc4ccccc34)nc2C)ccc1OCC(=O)O [SR 13904]
fraction of cells in the G1 phase (A549 cells): significantly increased | fraction of cells in the S phase (A549 cells): decreased | MMP-9 activity (MMP-9): attenuated | IC50 [1]: 12 µM

— patent US20090163481A1, “PPAR-DELTA LIGANDS AND METHODS OF THEIR USE” (priority 2007, published 2009)
